US6150126A, “Daphnia reproductive bioassay for testing toxicity of aqueous samples and presence of an endocrine disrupter” (Wisconsin Alumni Research Foundation, priority 1998, dated 2000)
Where two headings read alike, the source gives them in different places.

Assays:
retinoid X receptors = settings: cited from earlier work
[1] = tested on: Daphnia galeata mendotae (CDF-1 clone); settings: in vivo
vertebrate systems = settings: cited from earlier work
[2] = tested on: Daphnia galeata mendotae Wingra CDF-1 clone; settings: in vivo
Daphnia [3] = settings: in vivo; cited from earlier work
Daphnia [4] = settings: in vivo; cited from earlier work; remark: listed apart in the source
Daphnia carinata = settings: in vivo; cited from earlier work
Daphnia [5] = settings: in vivo, cited from earlier work
D. magna [6] = settings: daphnia, in vivo; cited from earlier work
Daphnia [7] = settings: in vivo, 48 h
fish, mammals and birds = settings: cited from earlier work
[8] = tested on: Daphnia galeata-mendotae (clone CDF-1); settings: in vivo
Daphnia [9] = settings: in vivo; cited from earlier work; remark: listed apart in the source
D. magna [10] = settings: daphnia, in vivo, cited from earlier work

In the case of `COC(C)(C)CCC[C@H](C)C/C=C/C(C)=C/C(=O)OC(C)C` (racemic) [methoprene], the “Gene transcription in mammals via retinoid X receptors” value (retinoid X receptors) is given as “can stimulate gene transcription in mammals by activating retinoid X receptors”.

For `ClC1=C(Cl)[C@]2(Cl)[C@@H]3[C@@H]4C[C@@H]([C@H]5O[C@@H]45)[C@@H]3[C@@]1(Cl)C2(Cl)Cl` [Dieldrin, dieldrin], the “Concentration of no effect on sex ratio / above which sex ratio is reduced” value ([1]; daphnia) was “about 30 ppb”, the “X intercept of regression line of sex ratio index vs log dieldrin” value ([1]; daphnia) was 31 ppb and the “Adult survival or clutch size, effect” value [1] was “Neither insecticide significantly affected adult survival or clutch size”. For the same compound, the Endocrine disruption activity [1] was “shows endocrine disruption activity in Daphnia”, the Morphological abnormalities [1] was “Neither insecticide caused morphological abnormalities” and the “Regression line, sex ratio index (Y) vs log ppb dieldrin (X)” value [1] was “Y=-0.0195X+0.299”. The Estrogenicity (vertebrate systems) was “weakly estrogenic”, the “Effect versus controls (sex ratio, males)” value [2] was “no difference” and the “Effect on sex ratio” value (Daphnia [3]) was “no effect of dieldrin on sex ratio”. The “Concentration below which little or no effect on population growth rate” value (Daphnia [4]) was “about 220 ppb”.

For `O=S1OCC2C(CO1)C1(Cl)C(Cl)=C(Cl)C2(Cl)C1(Cl)Cl` (stereo not drawn) [Endosulfan, endosulfan], the “Adult survival or clutch size, effect” value [1] was “Neither insecticide significantly affected adult survival or clutch size”, the Morphological abnormalities [1] was “Neither insecticide caused morphological abnormalities” and the “Sex ratio, effect” value [1] was “No endosulfan effect was observed”. For the same compound, the “Concentrations reducing body length and weight, egg mass and brood size” value (Daphnia carinata) was 40-160 ppb, the “Lowest concentration with reported morphological changes” value (Daphnia [5]; daphnia) was 0.1 μgL^-1 and the “Concentration affecting Daphnia population growth” value (Daphnia [5]) was “about 120 ppb”. The “Concentration reducing filtration and assimilation rates” value (Daphnia [5]) was 440-600 ppb, the Estrogenicity (vertebrate systems) was “weakly estrogenic” and the “Effect versus controls (sex ratio, males)” value [2] was “a tendency for a reduction of males”.

In the case of nonylphenol, the “No-observed effect concentration (NOEC)” value (D. magna [6]) is given as 24 μgL-L^-1, the Mortality (Daphnia [7]) is given as 100% and the Estrogenicity (fish, mammals and birds) is given as “estrogenic to fish, mammals and birds”. For the same compound, the “Live young with deformity” value [8] was 11%, the “Population growth rate r” value [8] was “nonlinear pattern” and the Survival [8] was “low survival”. The Developmental deformity (Daphnia [9]) was “cause a characteristic deformity”, the “Chronic LC50” value (D. magna [10]; 168 h) was 0.12 µg/mL and the “Chronic LC50” value (D. magna [10]; 336 h) was 0.12 µg/mL. The “Chronic LC50” value (D. magna [10]; 504 h) was 0.1 µg/mL.
